For one data set, the system named is M. tuberculosis H37Rv. The experiment in a line: Minimum inhibitory concentration (resazurin microplate). The format is cell-based, Mycobacterium tuberculosis. Particulars: Mycobacterium tuberculosis; M. tuberculosis H37Rv; 7 days + 48 h resazurin; highest value of three assays.
Data set [1] is described as follows: Cellular viability of Vero cells (MTT and neutral red uptake). The format is cell-based. As to conditions: African green monkey, Vero cells; MTT method, 72 h. The procedure:
(§1) Cellular viability was determined using two distinct methods—3-(4,5-dimethylthiazol-2-yl)-2,5-diphenyl-2H-tetrazolium bromide (MTT) and neutral red uptake (NRU). The cell lines employed in the evaluation were Vero and HepG2 cells. Both cell lines were grown with Dulbecco’s Modified Eagle Medium (DMEM-Gibco, Grand Island, NY, USA) and supplemented with 10% fetal bovine serum by Invitrogen, 1% antibiotics (penicillin and streptomycin) by Gibco, and 0.1% fungizone by Gibco. For the MTT and NRU assays, Vero (2 × 10^3 cells/well) and HepG2 (4 × 10^3 cells/well) cells were seeded in 96-well culture plates and incubated overnight. The N-(4-(benzyloxy)benzyl)-4-aminoquinolines were diluted at concentrations of 3 µM using DMSO 1% and were incubated with the cell lines for 72 h at 37 °C. In the MTT investigation, after incubation for 72 h at 37 °C under 5% CO2, the cells were incubated with MTT solution (5 mg/mL, Sigma-Aldrich, St. Louis, MO, USA) for 4 h. The formazan crystals were solubilized in 100 µL of DMSO. An EZ Read 400 microplate reader (Biochrom, Cambridge, UK) was used to measure the absorbance at 570 nm. The mean absorbance of negative control wells was established as the maximum viability and the values of treated cells were calculated as the percentage of vehicle control (1% DMSO). The precipitated purple formazan crystals were directly equivalent to the number of live cells with active mitochondrial metabolism. In the NRU investigation, after 72 h of cell incubation, PBS was used to wash the cells and 200 µL of neutral red dye solution (25 µg/mL, Sigma-Aldrich, St. Louis, MO, USA) prepared in serum-free medium was added to the plate and incubated for 3 h at 37 °C under 5% CO2. Cells were washed with PBS followed by the addition of 100 µL of desorb solution (ethanol/acetic acid/water, 50:1:49) for 30 min with smooth homogenization to extract neutral red dye from the viable cells. An EZ Read 400 microplate reader was operated to measure the absorbance at 562 nm, and the cell viability was attributed as a percentage, considering the vehicle control cell (1% DMSO) as maximum cell viability.

In another data set the test system is Vero cells. The data set is described as above. The format is cell-based. Particulars: for Vero cell viability in words: 72 h at concentrations similar to MIC, MTT and neutral red; for CC50: neutral red method, 72 h. On the procedure: as §1
Data set [2] can be described thus: Cellular viability of HepG2 cells (MTT and neutral red uptake). The class given is cell-based. Particulars: human, HepG2 cells; MTT method, 72 h. The procedure:
as §1

The subject of a further data set is HepG2 cells. The description is as above. The class given is cell-based. Particulars: for HepG2 cell viability in words: 72 h at concentrations similar to MIC, MTT and neutral red; for CC50: neutral red method, 72 h. On the procedure: as §1
The format of data set [3] is physicochemical. Particulars: buffer, 24 h, 10 µM. The procedure:
The experiment was carried out by the Center for Applied Mass Spectrometry (CEMSA), São Paulo, Brazil. In brief, the test compounds (10 µM) were incubated at 37 °C for 24 h in the presence of pH-controlled buffer solution at pH 1.2 (simulating the pH of the stomach—0.1 M HCl), pH 7.4 (simulating plasma pH—phosphate buffer) and pH 9.1 (simulating intestinal pH—0.1 M NH4HCO3). Afterward, compounds were quantified by HPLC–MS/MS. Alprenolol drug was used as an analytical control (data not shown). The results were presented as the percentage, comparing the signal at time zero of the assay (100%) with the signal produced by concentrations after the incubation period.

A short description of a further data set: in vitro. The format is in vitro ADME. Particulars: for Papp at 5 h, 10 µM: PAMPA, pH 7.4. On the procedure:
The experiment was carried out by the Center for Applied Mass Spectrometry (CEMSA), São Paulo, Brazil. In brief, the Parallel Artificial Membrane Permeability Assay (PAMPA) assay consists of quantifying the test compound (via HPLC–MS/MS) after an incubation period, in two solutions separated by an artificial lipid membrane. The result of this test is expressed in units of diffusion rate (permeation). The procedure comprised the following steps: (1) preparing the membrane, which contains lipids, with specific activating solutions, creating a hydrophobic surface that simulates the intestinal epithelial cell; (2) adding the test compound at a concentration of 10 µM to the donor aqueous phase (buffered pH 7.4); (3) after 5 h at room temperature, an aliquot of the solution receptor (buffered at pH 7.4) is removed, in which the compound is transported by passive diffusion, for quantification by HPLC–MS/MS.

Data set [4] in a line: Metabolic stability in rat liver microsomes. The format is in vitro ADME. As to conditions: for Metabolism rate class: rat microsomes, classes by Clint; for CLint scaled / half-life: rat, microsomes. The procedure:
The experiment was carried out by the Center for Applied Mass Spectrometry (CEMSA), São Paulo, Brazil. In brief, the metabolic stability assay was performed in the presence of rat liver microsomes. Compounds were incubated at 37 °C in a buffered solution containing 1 mg/mL of microsomal protein and nicotinamide adenine dinucleotide […]. The reaction was stopped at different times using acetonitrile. The compound concentration was determined by HPLC–MS/MS at each incubation time (0, 5, 15, and 30 min) and the percentage remaining versus time curve was determined. Verapamil was used as an analytical control (data not shown).

The molecule `Cc1cc(NCc2ccc(OCc3ccc(F)cc3)cc2)c2cc(Br)ccc2n1` [Compound 9o, N-(4-((4-fluorobenzyl)oxy)benzyl) 6-bromo-2-methylquinolin-4-amine] returned a melting point of 173 to 175 °C. Further, the minimum inhibitory concentration (MIC) in the data set with M. tuberculosis H37Rv turned out to be 2.8 µM. The CC50 at 72 h in [1] is > 3 µM. In the data set on Vero cells, the “Vero cell viability in words” value is on record as “not significantly altered” and the half-maximal cytotoxic concentration (CC50) is > 3 µM. Further, in [2], the cytotoxic concentration (CC50) at 72 h was > 3 µM. Besides, in the data set on HepG2 cells, the “HepG2 cell viability in words” value is given as “not significantly altered” and the cytotoxic concentration (CC50) is > 3 µM. Besides, in [3], the “Chemical Stability pH 1.2, remaining compound” value was determined as 22.9%; the “Chemical Stability pH 7.4, remaining compound” value came to 7.6%; the “Chemical Stability pH 9.1, remaining compound” value is 11.1%. In “in vitro”, the “Passive permeability (PAMPA) in words” value is “high permeability” and the apparent permeability (Papp) at 5 h, 10 µM stood at 3 ×10⁻⁶ cm/s. For the same molecule, in [4], the Metabolism rate class entry is on record as “high (high metabolism rates (Clint > 47))”, the intrinsic metabolic clearance (CLint scaled) worked out at 56 mL/min/kg and the half-life came to 7.9 min.

As to `Cc1cc(NCc2ccc(OCc3ccc(Cl)cc3)cc2)c2cc(Br)ccc2n1` [Compound 9n, N-(4-((4-chlorobenzyl)oxy)benzyl)-6-bromo-2-methylquinolin-4-amine], the melting point was in the range of 184 to 186 °C. Besides, the minimum inhibitory concentration (MIC) in the data set with M. tuberculosis H37Rv was 2.7 µM. Besides, the CC50 at 72 h in data set [1] is > 3 µM. For the same molecule, in the data set with Vero cells, the “Vero cell viability in words” value was “not significantly altered” and the CC50 was > 3 µM. Besides, the CC50 at 72 h in [2] was > 3 µM. In the data set on HepG2 cells, the “HepG2 cell viability in words” value is on record as “not significantly altered” and the cytotoxic concentration (CC50) is > 3 µM. In data set [3], the “Chemical Stability pH 1.2, remaining compound” value stood at 14.9%; the “Chemical Stability pH 7.4, remaining compound” value came to 5.0%; the “Chemical Stability pH 9.1, remaining compound” value is recorded as 13.8%. In addition, in the data set “in vitro”, the “Passive permeability (PAMPA) in words” value is “low permeability” and the Papp at 5 h, 10 µM stood at 0.3 ×10⁻⁶ cm/s. In [4], the Metabolism rate class result is listed as “moderate (moderate metabolism rates (47 ≤ Clint ≥ 16))”, the intrinsic metabolic clearance (CLint scaled) came out at 39 mL/min/kg and the half-life was found to be 19 min.

(Values after article PMC9027910, “Synthesis and Antimycobacterial Evaluation of N-(4-(Benzyloxy)benzyl)-4-aminoquinolines” (Molecules, 2022).)
